Experimental data as given in patent US9346754B2, “Method of treating advanced non-alcoholic steatohepatitis” (priority 2014, dated 2016).
“Also recorded” adds a separate entry of the source.

Legend:
Type in all cases: in vivo, C57BL/6 mice
[1] = test system: STAM Model of Advanced Non-Alcoholic Steatohepatitis; assay: HE staining and NAFLD Activity Score (NAS) in STAM mice; set-up: key to NAS (NAFLD Activity Score): NAS scored per Kleiner criteria (Hepatology 2005)
Description: STAM™ is a useful model for advanced non-alcoholic steatohepatitis (advanced NASH), symptoms thereof, and related liver disorders, created by the combination of chemical and dietary interventions in C57BL/6 mice. In this example, after inducing NASH, it was allowed to reach an advanced stage, and the mice were treated at 8-12 weeks. […] Vehicle, MN-001, and Telmisartan were administered by oral route in a volume of 10 mL/kg. […] For HE staining, sections were cut from paraffin blocks of liver tissue prefixed in Bouin's solution and stained with Lillie-Mayer's Hematoxylin (Muto Pure Chemicals, Japan) and eosin solution (Wako Pure Chemical Industries). NAFLD Activity score (NAS) was calculated according to the criteria of Kleiner (Kleiner D E. et al., Hepatology, 2005; 41:1313). To visualize collagen deposition, Bouin's fixed liver sections were stained using picro-Sirius red solution (Waldeck, Germany). […] P values<0.05 were considered statistically significant. […] Results were expressed as mean±SD. Ten NASH mice were orally administered vehicle supplemented with MN-001 at a dose of 10 mg/kg once daily from 8 to 12 weeks of age. Ten NASH mice were orally administered vehicle supplemented with MN-001 at a dose of 30 mg/kg once daily from 8 to 12 weeks of age. Ten NASH mice were orally administered vehicle supplemented with MN-001 at a dose of 100 mg/kg once daily from 8 to 12 weeks of age. Ten NASH mice were orally administered pure water supplemented with Telmisartan at a dose of 10 mg/kg once daily from 8 to 12 weeks of age.

[2] = test system: TIMP-1 mRNA; assay: Liver gene expression by quantitative RT-PCR: TIMP-1; conditions: 10 mg/kg oral once daily, 8 to 12 weeks of age (MN-001-low; Telmisartan)
Description: (§1) Total RNA was extracted from liver samples using RNAiso (Takara Bio, Japan) according to the manufacturer's instructions. One μg of RNA was reverse-transcribed using a reaction mixture containing 4.4 mM MgCl2 (F. Hoffmann-La Roche, Switzerland), 40 U RNase inhibitor (Toyobo, Japan), 0.5 mM dNTP (Promega, USA), 6.28 μM random hexamer (Promega), 5× first strand buffer (Promega), 10 mM dithiothreitol (Invitrogen, USA) and 200 U MMLV-RT (Invitrogen) in a final volume of 20 μL. The reaction was carried out for 1 hour at 37° C., followed by 5 minutes at 99° C. Real-time PCR was performed using real-time PCR DICE and SYBR premix Taq (Takara Bio). To calculate the relative mRNA expression level, the expression of each gene was normalized to that of reference gene 36B4 (gene symbol: Rp1p0). Information of PCR-primer sets are described in Table 1. [table] […] P values<0.05 were considered statistically significant. […] Results were expressed as mean±SD.

[3] = test system: Alpha-SMA mRNA; assay: Liver gene expression by quantitative RT-PCR: Alpha-SMA; conditions: Telmisartan 10 mg/kg oral once daily, 8 to 12 weeks of age
Description: as §1

[4] = Liver weight and liver-to-body weight ratio in STAM mice; conditions: Telmisartan 10 mg/kg oral once daily, 8 to 12 weeks of age
Text: Mice in all groups will be sacrificed for the following assays at 12 weeks of age. Individual liver weight will be measured, and liver-to-body weight ratio will be calculated. Liver hydroxyproline will be quantified by a hydrolysis method. Histopathological analyses of liver sections (according to routine methods) HE staining (to estimate NAFLD Activity score), Sirius-red staining (to estimate the percentage of fibrosis area). F4/80 immunostaining (to estimate the percentage of inflammation area), Alpha-SMA immunostaining (to estimate the percentage of a-SMA positive area) are performed. Gene expression assays using total RNA from the liver Real-time RT-PCR analysis will be performed for TIMP-1, Collagen Type 1, α-SMA, 5-lipoxygenase, FLAP and LTC4 synthase are also performed. Statistical tests will be performed using Bonferroni Multiple Comparison Test. P values<0.05 will be considered statistically significant. […] P values<0.05 were considered statistically significant. […] Results were expressed as mean±SD.

[5] = test system: STAM Model of Advanced Non-Alcoholic Steatohepatitis; assay: F4/80 immunostaining, percentage of inflammation area in STAM mice
Description: (§2) For immunohistochemistry, sections were cut from frozen liver tissues embedded in Tissue-Tek O.C.T. compound and fixed in acetone. Endogenous peroxidase activity was blocked using 0.03% H2O2 for 5 minutes, followed by incubation with Block Ace (Dainippon Sumitomo Pharma, Japan) for 10 minutes. The sections were incubated with a 200-fold dilution of anti-α-SMA (Epitomics, USA) or anti-F4/80 antibody (BMA Biomedicals, Switzerland) 1 hour at room temperature. […] For quantitative analysis of fibrosis area, inflammation area, and semi-quantification of α-SMA, bright field images of Sirius red-stained, F4/80- and α-SMA-immunostained sections were captured around the central vein using a digital camera (DFC280: Leica Microsystems, Germany) at 200-fold magnification, and the positive areas in 5 fields/section were measured using ImageJ software (National Institute of Health, USA). […] P values<0.05 were considered statistically significant. […] Results were expressed as mean±SD.

[6] = test system: Collagen Type 1 mRNA; assay: Liver gene expression by quantitative RT-PCR: Collagen Type 1; conditions: Telmisartan 10 mg/kg oral once daily, 8 to 12 weeks of age
Description: as §1

[7] = test system: STAM Model of Advanced Non-Alcoholic Steatohepatitis; assay: Alpha-SMA immunostaining, α-SMA-positive area in STAM mice; conditions: 10 mg/kg oral once daily
Description: as §2

[8] = test system: Five-Lipoxygenase mRNA; assay: Liver gene expression by quantitative RT-PCR: Five-Lipoxygenase; conditions: 10 mg/kg oral once daily, 8 to 12 weeks of age (MN-001-low; Telmisartan)
Description: as §1

[9] = Telmisartan 10 mg/kg oral once daily, 8 to 12 weeks of age
[10] = mean ± SD, 10 mg/kg oral once daily, 8 to 12 weeks of age (MN-001-low n=10; Telmisartan n=9)

## CCCc1nc2c(C)cc(-c3nc4ccccc4n3C)cc2n1Cc1ccc(-c2ccccc2C(=O)O)cc1 [Telmisartan, reference compound]
[1]; [9]
  NAS compared with the Vehicle group: significantly decreased
[1]; [10]
  NAS (NAFLD Activity Score): 2.8 ± 0.8
[1]; score 0 = <5%, 10 mg/kg oral once daily, 8 to 12 weeks of age (MN-001-low n=10; Telmisartan n=9)
  Number of mice with Steatosis score 0: 2
[1]; score 0 = No foci, 10 mg/kg oral once daily, 8 to 12 weeks of age (MN-001-low n=10; Telmisartan n=9)
  Number of mice with Lobular inflammation score 0: 2
[1]; score 1 = 5-33%, 10 mg/kg oral once daily, 8 to 12 weeks of age (MN-001-low n=10; Telmisartan n=9)
  Number of mice with Steatosis score 1: 7
[1]; score 1 = <2 foci/200x, 10 mg/kg oral once daily, 8 to 12 weeks of age (MN-001-low n=10; Telmisartan n=9)
  Number of mice with Lobular inflammation score 1: 5
[1]; score 1 = Few balloon cells, 10 mg/kg oral once daily, 8 to 12 weeks of age (MN-001-low n=10; Telmisartan n=9)
  Number of mice with Hepatocyte ballooning score 1: 9
[1]; score 2 = 2-4 foci/200x, 10 mg/kg oral once daily, 8 to 12 weeks of age (MN-001-low n=10; Telmisartan n=9)
  Number of mice with Lobular inflammation score 2: 2
[2]
  TIMP-1 mRNA expression levels compared with the Vehicle group: significantly down-regulated
[3]
  Alpha-SMA mRNA expression levels compared with the Vehicle group: significantly down-regulated
[4]
  Mean liver weight compared with the Vehicle group: significantly decreased; also recorded: significant decrease
  Mean liver-to-body weight ratio compared with the Vehicle group: significant decrease
[5]; [9]
  Inflammation area compared with the Vehicle group: significantly decreased; also recorded: tended to decrease
[5]; [10]
  F4/80-positive area (inflammation area): 3.79 ± 1.60%
[6]
  Collagen Type 1 mRNA expression levels compared with the Vehicle group: significantly down-regulated
[7]; 8 to 12 weeks of age (MN-001-low; Telmisartan)
  α-SMA-positive area compared with the Vehicle group: significantly decreased
[7]; mean ± SD, 8 to 12 weeks of age (MN-001-low n=10; Telmisartan n=9)
  Alpha-SMA-positive area: 0.35 ± 0.14%
[8]
  Five-Lipoxygenase mRNA expression levels compared with the Vehicle group: tended to decrease
